In the supplement of paper PMC11208160:
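Note: IS621 bridge recombinase in Escherichia coli cells against a fixed T5 target plasmid.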

Experiment: recombinant UMI read abundance after kanamycin selection (control-corrected) (log10(CPM+1)); higher = more efficient recombination; extreme values may be limits of the assay; sequences stand for … in AGTGCAGAGAAAATCGGCCAGTTTTCTCTGCCTGCAGTCCGCATGCCGTGGGACCCCTTGGGTTCTAACCTGTTGCCTAGATTTATGCAGCGGACTGCCTTTCTCCCAAAGTGATAAACCGG…AGGTTGGTTTCACT; site = the 11-nt donor
Procedure, shortened: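 Sequenced counts of recombinant UMIs were turned into CPM, averaged across replicates and scaled with control-derived factors. The reported figure is log10(CPM+1). Those UMIs, each 12 nt long, tagged donor and donor-binding-loop pairs on a plasmid with a promoterless kanamycin gene, screened as a pool in Escherichia coli with IPTG (0.07 mM) plus kanamycin or without selection.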
For “GAGCTCGCATGGACCGGTTTTCCCGGTAATCCGTATTTGAT (site GAGCTCCCTAT)”, the “recombinant UMI read abundance (log10)” value was 0.626.
For “GAGCTCGCATGGACCGGTTTTCCCGGTAATCCGTATTTGAT (site GAGCTCGCTAT)”, the “recombinant UMI read abundance (log10)” value was 2.26.
In the case of “GAGCTCGCATGGACCGGTTTTCCCGGTAATCCGTATTTGAT (site GAGCTCTCTAT)”, the “recombinant UMI read abundance (log10)” value is reported as 1.37.
In the case of “GAGGAAACATGGACCGGTTTTCCCGGTAATCCGTATTTGCT (site GAGGAAACTAG)”, the “recombinant UMI read abundance (log10)” value is reported as 0.
With “GAGGAACCATGGACCGGTTTTCCCGGTAATCCGTATTTGGA (site GAGGAACCTTC)” the “recombinant UMI read abundance (log10)” value was 0.00548.
With “GAGGATGCATGGACCGGTTTTCCCGGTAATCCGTATTTGAA (site GAGGATGCTTT)” the “recombinant UMI read abundance (log10)” value was 2.56.
With “GAGGTAGCATGGACCGGTTTTCCCGGTAATCCGTATTTGAT (site GAGGTAGCTAT)” the “recombinant UMI read abundance (log10)” value was 2.43.
For “GAGTAGCCATGGACCGGTTTTCCCGGTAATCCGTATTTGTC (site GAGTAGCCTGA)”, the “recombinant UMI read abundance (log10)” value was 0.
For “GAGTGGACATGGACCGGTTTTCCCGGTAATCCGTATTTGAC (site GAATGGACTGT)”, the “recombinant UMI read abundance (log10)” value was 1.75.
For “GAGTGGACATGGACCGGTTTTCCCGGTAATCCGTATTTGAC (site GACTGGACTGT)”, the “recombinant UMI read abundance (log10)” value was 0.208.
In the case of “GAGTGGACATGGACCGGTTTTCCCGGTAATCCGTATTTGAC (site GAGTGGACTGT)”, the “recombinant UMI read abundance (log10)” value is reported as 2.6.
In the case of “GAGTGGACATGGACCGGTTTTCCCGGTAATCCGTATTTGAC (site GATTGGACTGT)”, the “recombinant UMI read abundance (log10)” value is reported as 0.
For “GATAAGCCATGGACCGGTTTTCCCGGTAATCCGTATTTGCC (site GATAAGCCTGG)”, the “recombinant UMI read abundance (log10)” value was 0.
For “GATACGTCATGGACCGGTTTTCCCGGTAATCCGTATTTGTT (site GATACGTCTAA)”, the “recombinant UMI read abundance (log10)” value was 0.338.
With “GATACGTCATGGACCGGTTTTCCCGGTAATCCGTATTTGTT (site GCTACGTCTAA)” the “recombinant UMI read abundance (log10)” value was 0.00442.
With “GATACGTCATGGACCGGTTTTCCCGGTAATCCGTATTTGTT (site GGTACGTCTAA)” the “recombinant UMI read abundance (log10)” value was 0.0473.
For “GATACGTCATGGACCGGTTTTCCCGGTAATCCGTATTTGTT (site GTTACGTCTAA)”, the “recombinant UMI read abundance (log10)” value was 0.0167.
For “GATAGATCATGGACCGGTTTTCCCGGTAATCCGTATTTGAG (site GATAGATCTCT)”, the “recombinant UMI read abundance (log10)” value was 1.83.
In the case of “GATCATCCATGGACCGGTTTTCCCGGTAATCCGTATTTGCT (site GATAATCCTAG)”, the “recombinant UMI read abundance (log10)” value is reported as 0.
For “GATCATCCATGGACCGGTTTTCCCGGTAATCCGTATTTGCT (site GATCATCCTAG)”, the “recombinant UMI read abundance (log10)” value was 0.452.
In the case of “GATCATCCATGGACCGGTTTTCCCGGTAATCCGTATTTGCT (site GATGATCCTAG)”, the “recombinant UMI read abundance (log10)” value is reported as 0.
In the case of “GATCATCCATGGACCGGTTTTCCCGGTAATCCGTATTTGCT (site GATTATCCTAG)”, the “recombinant UMI read abundance (log10)” value is reported as 0.
With “GATCCAACATGGACCGGTTTTCCCGGTAATCCGTATTTGTA (site GATCCAACTTA)” the “recombinant UMI read abundance (log10)” value was 0.0155.
In the case of “GATCCAACATGGACCGGTTTTCCCGGTAATCCGTATTTGTA (site GCTCCAACTTA)”, the “recombinant UMI read abundance (log10)” value is reported as 0.00727.
For “GATCCAACATGGACCGGTTTTCCCGGTAATCCGTATTTGTA (site GGTCCAACTTA)”, the “recombinant UMI read abundance (log10)” value was 0.021.
With “GATCCAACATGGACCGGTTTTCCCGGTAATCCGTATTTGTA (site GTTCCAACTTA)” the “recombinant UMI read abundance (log10)” value was 0.0286.
With “GATCCGTCATGGACCGGTTTTCCCGGTAATCCGTATTTGTA (site GATCCGTCTTA)” the “recombinant UMI read abundance (log10)” value was 1.26.
For “GATCGCTCATGGACCGGTTTTCCCGGTAATCCGTATTTGTT (site GATCGCTCTAA)”, the “recombinant UMI read abundance (log10)” value was 0.523.
In the case of “GATCTGCCATGGACCGGTTTTCCCGGTAATCCGTATTTGAA (site GATCTGCCTTT)”, the “recombinant UMI read abundance (log10)” value is reported as 0.00302.
For “GATGAAACATGGACCGGTTTTCCCGGTAATCCGTATTTGCC (site GATGAAACTGG)”, the “recombinant UMI read abundance (log10)” value was 1.72.
With “GATGGGACATGGACCGGTTTTCCCGGTAATCCGTATTTGAC (site GATAGGACTGT)” the “recombinant UMI read abundance (log10)” value was 1.69.
With “GATGGGACATGGACCGGTTTTCCCGGTAATCCGTATTTGAC (site GATCGGACTGT)” the “recombinant UMI read abundance (log10)” value was 0.285.
With “GATGGGACATGGACCGGTTTTCCCGGTAATCCGTATTTGAC (site GATGGGACTGT)” the “recombinant UMI read abundance (log10)” value was 2.75.
In the case of “GATGGGACATGGACCGGTTTTCCCGGTAATCCGTATTTGAC (site GATTGGACTGT)”, the “recombinant UMI read abundance (log10)” value is reported as 0.
With “GATGTAACATGGACCGGTTTTCCCGGTAATCCGTATTTGCT (site AATGTAACTAG)” the “recombinant UMI read abundance (log10)” value was 1.24.
For “GATGTAACATGGACCGGTTTTCCCGGTAATCCGTATTTGCT (site CATGTAACTAG)”, the “recombinant UMI read abundance (log10)” value was 1.31.
With “GATGTAACATGGACCGGTTTTCCCGGTAATCCGTATTTGCT (site GATGTAACTAG)” the “recombinant UMI read abundance (log10)” value was 1.83.
